Key:
HIV-1 [1] = conditions: in vitro; cited from earlier work
HIV-1 [2] = test: MT-4 cell viral cytopathic effect protection assay, phenotypic susceptibility of patient recombinant virus; assay type: cell-based
Protocol: Phenotypic susceptibility was determined using a MT-4 cell viral cytopathic effect protection assay. See, e.g., Kashiwase et al., Chemotherapy 45(1):48–55 (1999), expressly incorporated herein by reference; Larder et al., Antimicrob. Agents Chemother. 43(8):1961–1967 (1999).

## CC(C)CN(C[C@@H](O)[C@H](Cc1ccccc1)NC(=O)O[C@H]1CCOC1)S(=O)(=O)c1ccc(N)cc1 [VX-478]
HIV-1 [1]
  Effect of N88S mutation on susceptibility: in vitro hypersensitivity
HIV-1 [2]; PI test sample 1
  actual phenotype resistance level: S/S (A fold resistance of less than or equal to 4 is considered to be ‘sensitive’)
HIV-1 [2]; PI test sample 2
  actual phenotype resistance level: S/S (A fold resistance of less than or equal to 4 is considered to be ‘sensitive’)
HIV-1 [2]; PI test sample 3
  actual phenotype resistance level: S/S (A fold resistance of less than or equal to 4 is considered to be ‘sensitive’)
HIV-1 [2]; PI test sample 4
  actual phenotype resistance level: I/I (greater than 4 and less than 10 is considered to be ‘intermediate’)
HIV-1 [2]; PI test sample 6
  actual phenotype resistance level: S/S (A fold resistance of less than or equal to 4 is considered to be ‘sensitive’)
HIV-1 [2]; PI test sample 7
  actual phenotype resistance level: S/S (A fold resistance of less than or equal to 4 is considered to be ‘sensitive’)
HIV-1 [2]; PI test sample 8
  actual phenotype resistance level: S/S (A fold resistance of less than or equal to 4 is considered to be ‘sensitive’)
HIV-1 [2]; PI test sample 9
  actual phenotype resistance level: S/S (A fold resistance of less than or equal to 4 is considered to be ‘sensitive’)
HIV-1 [2]; PI test sample 10
  actual phenotype resistance level: S/S (A fold resistance of less than or equal to 4 is considered to be ‘sensitive’)
HIV-1 [2]; PI test sample 11
  actual phenotype resistance level: S/S (A fold resistance of less than or equal to 4 is considered to be ‘sensitive’)
HIV-1 [2]; PI test sample 12
  actual phenotype resistance level: S/S (A fold resistance of less than or equal to 4 is considered to be ‘sensitive’)
HIV-1 [2]; PI test sample 13
  actual phenotype resistance level: I/I (greater than 4 and less than 10 is considered to be ‘intermediate’)
HIV-1 [2]; PI test sample 14
  actual phenotype resistance level: S/S (A fold resistance of less than or equal to 4 is considered to be ‘sensitive’)
HIV-1 [2]; PI test sample 15
  actual phenotype resistance level: S/S (A fold resistance of less than or equal to 4 is considered to be ‘sensitive’)
HIV-1 [2]; PI test sample 16
  actual phenotype resistance level: R/R (if the value is greater than 10, it is considered to be ‘resistant’)
HIV-1 [2]; PI test sample 18
  actual phenotype resistance level: S/S (A fold resistance of less than or equal to 4 is considered to be ‘sensitive’)
HIV-1 [2]; PI test sample 19
  actual phenotype resistance level: S/S (A fold resistance of less than or equal to 4 is considered to be ‘sensitive’)
HIV-1 [2]; PI test sample 20
  actual phenotype resistance level: S/S (A fold resistance of less than or equal to 4 is considered to be ‘sensitive’)
HIV-1 [2]; PI test sample 21
  actual phenotype resistance level: S/S (A fold resistance of less than or equal to 4 is considered to be ‘sensitive’)
HIV-1 [2]; PI test sample 22
  actual phenotype resistance level: S/S (A fold resistance of less than or equal to 4 is considered to be ‘sensitive’)
HIV-1 [2]; PI test sample 23, listed as Amprenavir
  actual phenotype resistance level: R/R (if the value is greater than 10, it is considered to be ‘resistant’)
HIV-1 [2]; PI test sample 24
  actual phenotype resistance level: R/R (if the value is greater than 10, it is considered to be ‘resistant’)
HIV-1 [2]; PI test sample 26
  actual phenotype resistance level: S/S (A fold resistance of less than or equal to 4 is considered to be ‘sensitive’)
HIV-1 [2]; PI test sample 30
  actual phenotype resistance level: I/I (greater than 4 and less than 10 is considered to be ‘intermediate’)
HIV-1 [2]; PI test sample 31, listed as Amprenavir
  actual phenotype resistance level: R/R (if the value is greater than 10, it is considered to be ‘resistant’)
HIV-1 [2]; PI test sample 36, listed as APV
  actual phenotype resistance level: I/I (greater than 4 and less than 10 is considered to be ‘intermediate’)
HIV-1 [2]; PI test sample 38, listed as Amprenavir
  actual phenotype resistance level: I/I (greater than 4 and less than 10 is considered to be ‘intermediate’)
HIV-1 [2]; PI test sample 39
  actual phenotype resistance level: I/I (greater than 4 and less than 10 is considered to be ‘intermediate’)
HIV-1 [2]; PI test sample 44
  actual phenotype resistance level: I/I (greater than 4 and less than 10 is considered to be ‘intermediate’)
HIV-1 [2]; PI test sample 46
  actual phenotype resistance level: I/I (greater than 4 and less than 10 is considered to be ‘intermediate’)
HIV-1 [2]; PI test sample 49
  actual phenotype resistance level: I/I (greater than 4 and less than 10 is considered to be ‘intermediate’)
HIV-1 [2]; Table 3 testing sample 1
  actual phenotype resistance level: S/S (A fold resistance of less than or equal to 4 is considered to be “sensitive,”)
HIV-1 [2]; Table 3 testing sample 2
  actual phenotype resistance level: S (A fold resistance of less than or equal to 4 is considered to be “sensitive,”)
HIV-1 [2]; Table 3 testing sample 3
  actual phenotype resistance level: S/S (A fold resistance of less than or equal to 4 is considered to be “sensitive,”)
HIV-1 [2]; Table 3 testing sample 6
  actual phenotype resistance level: S/S (A fold resistance of less than or equal to 4 is considered to be “sensitive,”)
HIV-1 [2]; Table 3 testing sample 7
  actual phenotype resistance level: S/S (A fold resistance of less than or equal to 4 is considered to be “sensitive,”)
HIV-1 [2]; Table 3 testing sample 8
  actual phenotype resistance level: S/S (A fold resistance of less than or equal to 4 is considered to be “sensitive,”)
HIV-1 [2]; Table 3 testing sample 9
  actual phenotype resistance level: S/S (A fold resistance of less than or equal to 4 is considered to be “sensitive,”)
HIV-1 [2]; Table 3 testing sample 10
  actual phenotype resistance level: S/S (A fold resistance of less than or equal to 4 is considered to be “sensitive,”)
HIV-1 [2]; Table 13/14 sample 4: 10I,46I,71V,77I,84V,90M, 63P,93L
  actual phenotype: S (A fold resistance of less than or equal to 4 is considered to be ‘sensitive’)
HIV-1 [2]; Table 13/14 sample 12: 10I,36I,46I,84V,90M, 20I,63P,73C,85V
  actual phenotype: R (if the value is greater than 10, it is considered to be ‘resistant’)
HIV-1 [2]; Table 13/14 sample 15: 46I,84V,90M, 20I,63Q
  actual phenotype: I (greater than 4 and less than 10 is considered to be ‘intermediate’)
HIV-1 [2]; Table 13/14 sample 16: 10I,46I,77I,84V,90M, 63P,73T,93L
  actual phenotype: S (A fold resistance of less than or equal to 4 is considered to be ‘sensitive’)
HIV-1 [2]; Table 13/14 sample 22: 10I,20R,36I,71V,73S,84V,90M, 13V,63P
  actual phenotype: I (greater than 4 and less than 10 is considered to be ‘intermediate’)
HIV-1 [2]; Table 13/14 sample 23: 10I,46I,77I,90M, 20I,63P,73T
  actual phenotype: S (A fold resistance of less than or equal to 4 is considered to be ‘sensitive’)
